Reference: US10196357B2, “Biaryl compositions and methods for modulating a kinase cascade” (Athenex, Inc., priority 2007, dated 2019)

How the values were obtained:
[1] = system: lung cancer cell line A549; experiment: tumor growth inhibition, A549; type: cell-based, Human; settings: Homo sapiens
Text: Growth Inhibition. […] T1 values≤T0 values were designated as T, cytotoxicity.

[2] = system: c-Src 3T3 cells; experiment: BrdU cell growth inhibition, c-Src 3T3; type: cell-based, mouse; settings: Mus musculus; for activity at 0.1 µM / activity at 1 µM / activity at 10 µM: NIH3T3, read-out: c-Src 3T3 Growth, % of Control Mean, n = 3; for activity at 0.1 µM: 100 nM; for GI50: c-Src 3T3 (c-Src527F/NIH3T3) cells, read-out: GI50
In short: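 c-Src 3T3 cells on poly-D-lysine plates in DMEM with 2% FBS, L-glutamine, pyruvate and 10 mM HEPES. Compounds came from 20 mM DMSO stocks diluted in DMEM/10% FBS. Proliferation was read by colorimetric BrdU-incorporation ELISA, and GI50 was extrapolated from growth relative to time-zero and untreated controls.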

[3] = system: colon tumor cell line KM 12; experiment: tumor growth inhibition, KM12; type: cell-based; settings: Homo sapiens; KM12 cells
Method: (§1) These GI50's were determined using the standard tumor growth inhibition assays, similar to that described in detail for the HT29 cell line above, and the following cell lines: colon tumor cell lines KM 12, lung cancer cell line H460 and lung cancer cell line A549 (all are NCI standard tumor cell lines).

[4] = system: HT29 cell line; experiment: BrdU cell growth inhibition, HT29; type: cell-based, human; settings: Homo sapiens; for GI50: HT-29, HT29 (Colon) cells, read-out: GI50; for activity at 0.05 µM / activity at 0.5 µM / activity at 5 µM: HT-29, read-out: HT-29 Growth, % of Control Mean, n = 3; for activity at 0.05 µM: 50 nM; for activity at 0.5 µM: 500 nM
In short: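 HT29 colon carcinoma cells treated with compounds diluted from 20 mM DMSO stocks into DMEM/10% FBS. Proliferation read as colorimetric BrdU incorporation ELISA; GI calculated relative to untreated cells at time 0 and control cells at day n, with GI50 extrapolated. Net cell loss below time-0 level scored as cytotoxicity.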

[5] = system: lung cancer cell line H460; experiment: tumor growth inhibition, H460; type: cell-based; settings: Homo sapiens, NCI-H460; H460 cells
Method: as §1

[6] = system: Hep G2; experiment: MTT growth inhibition, Hep G2; type: cell-based, human; settings: Hep G2, 8.0×10^3 cells/wells, […] FBS @ 78 Hr
Method: (§2) Samples of the test compounds were formulated in 100% DMSO to obtain 20 mM stock solutions; stored @ 4° C. The IC50s and IC80s were determined as described below. Huh7, WRL-68, PLC/PRF/5, Hep 3B, and Hep G2 human cancer lines were routinely cultured and maintained in a basal medium containing 2% FBS @ 37° C., 5% CO2. […] The assay medium was basal medium/1.5% FBS. Cells were cultured overnight in 96-well plates at 37° C., 5% CO2 prior to KX2-391. MSA and Dasatinib addition. […] 10 μL of 20× dilutions were added to the appropriate wells (n=3) containing 190 μL cancer cell line; 6561 nM to 0.012 nM range of final concentrations. Vehicle control contained cells, no sample. Medium control contained cells, no sample, 0.03% DMSO (highest DMSO concentration present in samples). […] On day 3, 10 μL MTT (5 mg/mL) were added to each well. Cells were incubated in the presence of MTT for 4 hours @ 37° C., 5% CO2. […] Cells were then incubated overnight @ 37°, 5% CO2. OD570 measurements were taken using BioTek Synergy HT multiplatform microplate reader. Growth inhibition curves IC50s and IC80s were determined using GraphPad Prism 5 statistical software.

[7] = system: HuH7; experiment: MTT growth inhibition, HuH7; type: cell-based, human; settings: HuH7, 8.0×10^3 cells/wells, […] FBS @ 78 Hr
Method: as §2

[8] = system: WRL-68; experiment: MTT growth inhibition, WRL-68; type: cell-based, human; settings: WRL-68, 8.0×10^3 cells/wells, […] FBS @ 78 Hr
Method: (§3) Samples of the test compounds were formulated in 100% DMSO to obtain 20 mM stock solutions; stored @ 4° C. The IC50s and IC80s were determined as described below. Huh7, WRL-68, PLC/PRF/5, Hep 3B, and Hep G2 human cancer lines were routinely cultured and maintained in a basal medium containing 2% FBS @ 37° C., 5% CO2. […] Vehicle control contained cells, no sample. Medium control contained cells, no sample, 0.03% DMSO (highest DMSO concentration present in samples). […] On day 3, 10 μL MTT (5 mg/mL) were added to each well. Cells were incubated in the presence of MTT for 4 hours @ 37° C., 5% CO2. […] Cells were then incubated overnight @ 37°, 5% CO2. OD570 measurements were taken using BioTek Synergy HT multiplatform microplate reader. Growth inhibition curves IC50s and IC80s were determined using GraphPad Prism 5 statistical software.

[9] = system: PLC/PRF/5; experiment: MTT growth inhibition, PLC/PRF/5; type: cell-based, human; settings: PLC/PRF/5, 8.0×10^3 cells/wells, […] FBS @ 78 Hr
Method: as §3

[10] = system: Hep 3B; experiment: MTT growth inhibition, Hep 3B; type: cell-based, human; settings: Hep 3B, 8.0×10^3 cells/wells, […] FBS @ 78 Hr
Method: as §3

[11] = system: HepG2-2.2.15 cells; experiment: cytotoxicity in HBV primary assay (MTS); type: cell-based; settings: Test Concentration 10 μM
Method: (§4) The antiviral activity of each test compound was calculated by comparing its HBV DNA copies against that of the untreated control cells (100%) to derive percent inhibition level. After removing the supernatant, the remaining cells were subject to CellTiter 96 Aqueous One (Promega, Madison, Wis.) solution cell proliferation assay (MTS-based) to measure cell viability. Cytotoxicity of the compound was determined by comparing its cell viability with that of the untreated cell control to derive percentage of the cell control.

[12] = system: wild-type aywl strain of HBV; experiment: HBV primary assay (HepG2-2.2.15 antiviral assay); type: cell-based; settings: Test Concentration 10 μM
Method: The HBV primary assay developed was conducted similarly to that described by Korba et al., (Antiviral Res. 15: 217-228 (1991) and Antiviral Res. 19: 55-70 (1992)) with the exception that viral DNA detection and quantification have been improved and simplified (Korba et al., Antiviral Res. 19: 55-70 (1992)).
Compound 38 (KX2-377), Compound 136 (KX2-393), and Compound 137 (KX2-394) were evaluated for potential anti-HBV activity using a single high-test concentration of compounds in the standardized HepG2-2.2.15 antiviral assay. The HepG2-2.2.15 is a stable cell line producing high levels of the wild-type aywl strain of HBV. Briefly, HepG2-2.2.15 cells were plated in 96-well plates. Only the interior wells were utilized to reduce “edge effects” observed during cell culture; the exterior wells are filled with complete medium to help minimize sample evaporation. On the following day, the confluent monolayer of HepG2-2.2.15 cells was washed and the medium is replaced with complete medium containing test concentrations of a test article in triplicate. 3TC was used as the positive control, while media alone was added to cells as the untreated control. Three days later the culture medium was replaced with fresh medium containing the appropriately diluted drug. Six days following the initial administration of the test compound, the cell culture supernatant was collected, treated with pronase and DNAse and then used in a real-time quantitative TaqMan PCR assay for direct measurement of HBV DNA copies using an ABI Prism 7900 sequence detection system (Applied Biosystems, Foster City, Calif.).
as §4

[13] = system: 769-P; experiment: renal tumor cell growth inhibition, 769-P; type: cell-based, Human; settings: Homo sapiens
Method: (§5) These GI50s were determined using standard tumor growth inhibition assays, similar to those described in detail in this Example 7.

[14] = system: ACHN; experiment: renal tumor cell growth inhibition, ACHN; type: cell-based, Human; settings: Homo sapiens, renal cell adenocarcinoma
Method: as §5

[15] = system: 786-O; experiment: renal tumor cell growth inhibition, 786-O; type: cell-based, Human; settings: Homo sapiens, 786-0, renal cell adenocarcinoma
Method: as §5

[16] = system: Caki-2; experiment: renal tumor cell growth inhibition, Caki-2; type: cell-based, Human; settings: Homo sapiens; Caki-2, clear cell carcinoma
Method: as §5

[17] = noise-induced hearing loss; type: in vivo, Chinchillas; settings: chinchilla ears treated on round window, 4 kHz band noise 105 dB SPL 4 h, days 1, 7, 21; relative to control ears
Method: Chinchillas (N=6) were used in studies of noise-induced hearing loss. The animals' hearing sensitivity was measured using standard electrophysical techniques before the experimental manipulation. […] Animals were anesthetized, the auditory bullae were opened, and the left and right cochleas were visualized. The round window leading to the scala tympani of the cochlea was used as the access point for drug application. Animals were treated with KX1-004, KX1-141, KX1-329 or KX2-328 (a non-ATP competitive inhibitor from AstraZeneca, KX2-238), emulsified in DMSO, in 1000 mM of saline solution, which was placed on the round window of one ear. KX1-004:
A control solution of 3 mM DMSO in 1000 mM of saline solution was placed on the round window of the other ear. The solution was allowed to set on the round window for 30 minutes, then the auditory bullae were closed. […] Following the noise exposure, the animals' hearing was tested at day 1, day 7, and day 21 to determine evoked potential threshold shifts. Permanent threshold shift was assessed at day 21.
FIGS. 10-12 show the average threshold shifts for animals treated with KX1-004, KX1-141, KX1-329 or KX2-328.

[18] = cisplatin-induced hearing loss; type: in vivo; settings: guinea pigs, subcutaneous treatment prior to cisplatin
Method: The effects of high level noise and ototoxic drugs, such as cisplatin or the class of aminoglycosides, share several common features in the inner ear. First, the noise and/or drugs alter the free radical/antioxidant levels in the cochlea (inner ear). […] Guinea pigs (N=7) were used in studies of cisplatin-induced hearing loss. The animals' hearing sensitivity was measured using standard electrophysical techniques before the experimental manipulation. […] Animals were anesthetized and treated with cisplatin. Subsequently, the animals' hearing was tested to determine evoked potential threshold shifts.
KX1 is CH65. Animals were treated subcutaneously with KX1-004 prior to the cisplatin-induced hearing loss.

Molecule	activity at 0.1 µM [2] [%]	activity at 1 µM [2] [%]	activity at 10 µM [2] [%]	GI50 [2] [nM]	GI50 [3] [nM]	melting point [°C]	GI50 [4] [nM]	activity at 0.05 µM [4] [%]	activity at 0.5 µM [4] [%]	activity at 5 µM [4] [%]	GI50 [5] [nM]	also measured
O=C(Cc1ccc(-c2ccccc2)cc1)NCc1cccc(O)c1 [KX1-136, N(3-hydroxy-benzyl)-4-biphenylacetamide]	46.3	< 0	< 0	53	105	169 to 170	484	83.1	< 0	< 0	280	GI50 ([1]; A549 (Lung) cells): 330 nM
O=C(Cc1ccc(-c2ccc(OCCN3CCOCC3)cc2)cn1)NCc1ccccc1 [KX2-391-MSA]												IC50 [6]: 60 nM; IC80 [6]: 3660 nM; IC50 [7]: 9 nM; IC80 [7]: 23 nM; IC50 [8]: 15 nM; IC80 [8]: 25 nM; IC50 [9]: 13 nM; IC80 [9]: 24 nM; IC50 [10]: 26 nM; IC80 [10]: 88 nM
Cl.Cl.O=C(Cc1ccc(-c2ccc(OCCN3CCOCC3)cc2)cn1)NCc1ccccc1 [KXO1:2HCl]												Cytotoxicity Percent of cell control [11]: 51.3%; Antiviral Activity Percent inhibition of cell control [12]: 48.2%; Interpretation [12]: Cytotoxic
CN1CCN(CCOc2ccc(-c3ccc(CC(=O)NCc4cccc(F)c4)cc3)c(F)c2)CC1 [KX2-402]												GI50 [13]: 8.4 nM; GI50 [14]: 6.9 nM; GI50 [15]: 57.7 nM; GI50 [16]: 5 nM
O=C(Cc1ccc(-c2ccccc2)cc1)NCc1cccc(F)c1 [KX1-305, N(3-fluoro-benzyl)-4-biphenylacetamide]	35	< 0	< 0	349	410	170 to 172	877	108	< 0	< 0	890	GI50 ([1]; A549 cells): 1030 nM
KX1-004												average dB threshold shifts [17]: lower; protection against cisplatin-induced hearing loss [18]: protected against ciplatin-induced hearing loss
